Experimental data taken from patent US9499550B2 (BRISTOL-MYERS SQUIBB COMPANY, priority 2012, dated 2016).

Experiments:
[1] = tested on: HCV genotype 1a (H77 strain) replicon in HUH-7 cells; assay: HCV replicon luciferase reporter assay, genotype 1a; type: cell-based; conditions: Hepatitis C virus, Huh-7, 72 h, HCV genotype 1a replicon luciferase assay, 3 days incubation, range class, read-out: LE_1a (EC50, range)
Method in brief: (§1)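 Replicon inhibition for both genotypes was measured as Renilla luciferase signal (EnduRen, 7.5 μM final, 2 h) after 3-day, 37° C exposure of replicon-bearing HUH-7 cells in 4% FCS DMEM, 0.5% DMSO. The 1b construct carries S1179I; the 1a H77 construct carries P1496L and S2204I. Twenty-point, 3-fold dilutions were fitted four-parametrically for EC50, and CC50 was taken from multiplexed Cell Titer-Blue.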

[2] = tested on: HCV genotype 1b (Con1) replicon in HUH-7 cells; assay: HCV replicon luciferase reporter assay, genotype 1b; type: cell-based; conditions: Hepatitis C virus, Huh-7, 72 h, HCV genotype 1b replicon luciferase assay, 3 days incubation, range class, read-out: LE_1b (EC50, range)
Method in brief: as §1

Question: What does the source list for `COc1ccc2c(O[C@@H]3C[C@H]4C(=O)N[C@]5(C(=O)NS(=O)(=O)C6CC6)C[C@H]5/C=C\CC[C@H](C)C[C@@H](C)[C@H](NC(=O)O[C@@H]5C[C@@H]6C[C@@H]6C5)C(=O)N4C3)nc(-c3ccc(OC)c(Cl)c3)cc2c1` [Compound 3053, (1R,3r,5S)-bicyclo[3.1.0]hexan-3-yl((2R,6S,7R,9S,13aS,14aR,16aS,Z)-2-((3-(3-chloro-4-methoxyphenyl)-6-methoxyisoquinolin-1-yl)oxy)-14a-((cyclopropylsulfonyl)carbamoyl)-7,9-dimethyl-5,16-dioxo-1,2,3,5,6,7,8,9,10,11,13a,14,14a,15,16,16a-hexadecahydrocyclopropa[e]pyrrolo[1,2-a][1,4]diazacyclopentadecin-6-yl)carbamate]?
Answer: EC50 [1]: < 5.46 nM; EC50 [2]: < 5.46 nM

Question: With `COc1ccc2c(O[C@@H]3C[C@H]4C(=O)N[C@]5(C(=O)NS(=O)(=O)C6CC6)C[C@H]5/C=C\CC[C@@H](C)C[C@@H](C)[C@H](NC(=O)O[C@@H]5C[C@@H]6C[C@@H]6C5)C(=O)N4C3)nc(-c3ccc(OC)c(Cl)c3)cc2c1` [Compound 3054, (1R,3r,5S)-bicyclo[3.1.0]hexan-3-yl((2R,6S,7R,9R,13aS,14aR,16aS,Z)-2-((3-(3-chloro-4-methoxyphenyl)-6-methoxyisoquinolin-1-yl)oxy)-14a-((cyclopropylsulfonyl)carbamoyl)-7,9-dimethyl-5,16-dioxo-1,2,3,5,6,7,8,9,10,11,13a,14,14a,15,16,16a-hexadecahydrocyclopropa[e]pyrrolo[1,2-a][1,4]diazacyclopentadecin-6-yl)carbamate] as the compound, how does the EC50 [1] read?
Answer: < 5.46 nM

Question: And the EC50 [2]?
Answer: < 5.46 nM

Question: Which EC50 [1] does the source give for `COc1ccc2c(O[C@@H]3C[C@H]4C(=O)N[C@]5(C(=O)NS(=O)(=O)C6CC6)C[C@H]5/C=C\CC[C@H](C)C[C@@H](C)[C@H](NC(=O)OC(C)(C)C(F)(F)F)C(=O)N4C3)nc(-c3ccc(OC)c(F)c3)cc2c1` [Compound 3055, 1,1,1-trifluoro-2-methylpropan-2-yl((2R,6S,7R,9S,13aS,14aR,16aS,Z)-14a-((cyclopropylsulfonyl)carbamoyl)-2-((3-(3-fluoro-4-methoxyphenyl)-6-methoxyisoquinolin-1-yl)oxy)-7,9-dimethyl-5,16-dioxo-1,2,3,5,6,7,8,9,10,11,13a,14,14a,15,16,16a-hexadecahydrocyclopropa[e]pyrrolo[1,2-a][1,4]diazacyclopentadecin-6-yl)carbamate] here?
Answer: 4.82 to 103 nM

Question: What about the EC50 [2] of the same compound?
Answer: < 5.46 nM

Question: `COc1ccc2c(O[C@@H]3C[C@H]4C(=O)N[C@]5(C(=O)NS(=O)(=O)C6CC6)C[C@H]5/C=C\CC[C@@H](C)C[C@@H](C)[C@H](NC(=O)OC(C)(C)C(F)(F)F)C(=O)N4C3)nc(-c3ccc(OC)c(F)c3)cc2c1` [Compound 3056, 1,1,1-trifluoro-2-methylpropan-2-yl((2R,6S,7R,9R,13aS,14aR,16aS,Z)-14a-((cyclopropylsulfonyl)carbamoyl)-2-((3-(3-fluoro-4-methoxyphenyl)-6-methoxyisoquinolin-1-yl)oxy)-7,9-dimethyl-5,16-dioxo-1,2,3,5,6,7,8,9,10,11,13a,14,14a,15,16,16a-hexadecahydrocyclopropa[e]pyrrolo[1,2-a][1,4]diazacyclopentadecin-6-yl)carbamate] was tested. Which EC50 [1] did it give?
Answer: < 5.46 nM

Question: What about the EC50 [2] of the same compound?
Answer: < 5.46 nM

Question: Which results are given for `COc1ccc2c(O[C@@H]3C[C@H]4C(=O)N[C@]5(C(=O)NS(=O)(=O)C6CC6)C[C@H]5/C=C\CC[C@H](C)C[C@@H](C)[C@H](NC(=O)O[C@@H]5C[C@@H]6C[C@@H]6C5)C(=O)N4C3)nc(-c3ccc(OC)c(F)c3)cc2c1` [Compound 3057, (1R,3r,5S)-bicyclo[3.1.0]hexan-3-yl((2R,6S,7R,9S,13aS,14aR,16aS,Z)-14a-((cyclopropylsulfonyl)carbamoyl)-2-((3-(3-fluoro-4-methoxyphenyl)-6-methoxyisoquinolin-1-yl)oxy)-7,9-dimethyl-5,16-dioxo-1,2,3,5,6,7,8,9,10,11,13a,14,14a,15,16,16a-hexadecahydrocyclopropa[e]pyrrolo[1,2-a][1,4]diazacyclopentadecin-6-yl)carbamate]?
Answer: EC50 [1]: < 5.46 nM; EC50 [2]: < 5.46 nM

Question: What does the source list for `COc1ccc2c(O[C@@H]3C[C@H]4C(=O)N[C@]5(C(=O)NS(=O)(=O)C6CC6)C[C@H]5/C=C\CC[C@@H](C)C[C@@H](C)[C@H](NC(=O)O[C@@H]5C[C@@H]6C[C@@H]6C5)C(=O)N4C3)nc(-c3ccc(OC)c(F)c3)cc2c1` [Compound 3058, (1R,3r,5S)-bicyclo[3.1.0]hexan-3-yl((2R,6S,7R,9R,13aS,14aR,16aS,Z)-14a-((cyclopropylsulfonyl)carbamoyl)-2-((3-(3-fluoro-4-methoxyphenyl)-6-methoxyisoquinolin-1-yl)oxy)-7,9-dimethyl-5,16-dioxo-1,2,3,5,6,7,8,9,10,11,13a,14,14a,15,16,16a-hexadecahydrocyclopropa[e]pyrrolo[1,2-a][1,4]diazacyclopentadecin-6-yl)carbamate]?
Answer: EC50 [1]: < 5.46 nM; EC50 [2]: < 5.46 nM

Question: Which results are given for `COc1ccc2c(O[C@@H]3C[C@H]4C(=O)N[C@]5(C(=O)NS(=O)(=O)C6CC6)C[C@H]5/C=C\CC[C@H](C)C[C@@H](C)[C@H](NC(=O)OC(C)(C)C)C(=O)N4C3)nc(-c3ccc(OC(C)C)c(F)c3)cc2c1` [Compound 3059, tert-butyl ((2R,6S,7R,9S,13aS,14aR,16aS,Z)-14a-((cyclopropylsulfonyl)carbamoyl)-2-((3-(3-fluoro-4-isopropoxyphenyl)-6-methoxyisoquinolin-1-yl)oxy)-7,9-dimethyl-5,16-dioxo-1,2,3,5,6,7,8,9,10,11,13a,14,14a,15,16,16a-hexadecahydrocyclopropa[e]pyrrolo[1,2-a][1,4]diazacyclopentadecin-6-yl)carbamate]?
Answer: EC50 [1]: 4.82 to 103 nM; EC50 [2]: < 5.46 nM

Question: Which results are given for `COc1ccc2c(O[C@@H]3C[C@H]4C(=O)N[C@]5(C(=O)NS(=O)(=O)C6CC6)C[C@H]5/C=C\CC[C@@H](C)C[C@@H](C)[C@H](NC(=O)OC(C)(C)C)C(=O)N4C3)nc(-c3ccc(OC(C)C)c(F)c3)cc2c1` [Compound 3060, tert-butyl ((2R,6S,7R,9R,13aS,14aR,16aS,Z)-14a-((cyclopropylsulfonyl)carbamoyl)-2-((3-(3-fluoro-4-isopropoxyphenyl)-6-methoxyisoquinolin-1-yl)oxy)-7,9-dimethyl-5,16-dioxo-1,2,3,5,6,7,8,9,10,11,13a,14,14a,15,16,16a-hexadecahydrocyclopropa[e]pyrrolo[1,2-a][1,4]diazacyclopentadecin-6-yl)carbamate]?
Answer: EC50 [1]: < 5.46 nM; EC50 [2]: < 5.46 nM

Question: Which EC50 [1] does the source give for `COc1ccc2c(O[C@@H]3C[C@H]4C(=O)N[C@]5(C(=O)NS(=O)(=O)C6(C)CC6)C[C@H]5/C=C\CC[C@H](C)C[C@@H](C)[C@H](NC(=O)OC(C)(C)C)C(=O)N4C3)nc(-c3ccc(OC(C)C)c(F)c3)cc2c1` [Compound 3061, tert-butyl ((2R,6S,7R,9S,13aS,14aR,16aS,Z)-2-((3-(3-fluoro-4-isopropoxyphenyl)-6-methoxyisoquinolin-1-yl)oxy)-7,9-dimethyl-14a-(((1-methylcyclopropyl)sulfonyl)carbamoyl)-5,16-dioxo-1,2,3,5,6,7,8,9,10,11,13a,14,14a,15,16,16a-hexadecahydrocyclopropa[e]pyrrolo[1,2-a][1,4]diazacyclopentadecin-6-yl)carbamate] here?
Answer: 4.82 to 103 nM

Question: And the EC50 [2]?
Answer: < 5.46 nM
